What all share (format): functional, Homo sapiens
Experiment [1] concerns Raji. The experiment can be described thus: Tested in vitro for inhibitory activity against TPA induced Epstein-Barr virus antigen activation in Raji cells (500 mol) for positive control.
Experiment [2] deals with Raji. The experiment can be described thus: Tested in vitro for inhibitory activity against TPA induced Epstein-Barr virus antigen activation in Raji cells (10 mol) for positive control.
For experiment [3], the system named is Raji. The experiment is described as follows: Tested in vitro for inhibitory activity against TPA induced Epstein-Barr virus antigen activation in Raji cells (100 mol) for positive control.
Experiment [4] deals with Raji. The experiment can be described thus: Tested in vitro for inhibitory activity against TPA induced Epstein-Barr virus antigen activation in Raji cells (1000 mol) for positive control.
Experiment [5] concerns Raji. The experiment is described as follows: Tested in vitro for inhibitory activity against TPA induced Epstein-Barr virus antigen activation in Raji cells (1000 mol) for viability.

As to `OCC(O)CO[C@@H]1O[C@@H](CO)[C@@H](O)[C@H](O)[C@@H]1O` (stereo in doubt; form 2), the “EBV-EA activation (% of positive control)” value with Raji [1] came out at 27.4%. Further, the “EBV antigen activation, % of positive control” value (“EBV antigen activation, %” below) in the experiment on Raji [2] was 90.4%; in the experiment on Raji [3], 68.9%.
`CO[C@@H]1O[C@H](CO)C(O)C(O)[C@H]1O` (single isomer, unassigned): the “EBV-EA activation (% of positive control)” value in the experiment with Raji [1] is 54.1%. The “EBV antigen activation, %” value in the experiment with Raji [4] was 22.8%; in the experiment with Raji [2], 100%; with Raji [3], 70.7%. The Viability with Raji [5] was determined as 70%.
Consider `CC(=O)OCC(CO)O[C@@H]1O[C@@H](CO)[C@@H](O)[C@H](O)[C@@H]1O` (stereo in doubt; form 1), for which, in the experiment on Raji [1], the “EBV-EA activation (% of positive control)” value is listed as 32.9%. The “EBV antigen activation, %” value came to 94.7% in the experiment on Raji [2] and 71.5% in the experiment on Raji [3].
Take `OCC(O)CO[C@@H]1O[C@@H](CO)[C@@H](O)[C@H](O)[C@@H]1O` (stereo in doubt; form 1): the “EBV-EA activation (% of positive control)” value in the experiment with Raji [1] is 20.7%. The “EBV antigen activation, %” value in the experiment on Raji [4] came to 0%; with Raji [2] it was 82.5%; in the experiment on Raji [3], 62.4%. The Viability in the experiment with Raji [5] is reported as 70%.
In the case of `CO[C@@H]1O[C@H](CO)[C@H](O)[C@H](O)[C@H]1O`, the “EBV-EA activation (% of positive control)” value in the experiment with Raji [1] turned out to be 43.9%. The “EBV antigen activation, %” value in the experiment on Raji [4] amounted to 20.3%; in the experiment on Raji [2], 93.7%; in the experiment with Raji [3] it was 76.5%. The same compound returned a Viability in the experiment with Raji [5] of 80%.
For `CC(=O)OCC(CO)O[C@@H]1O[C@@H](CO)[C@@H](O)[C@H](O)[C@@H]1O` (stereo in doubt; form 2), in the experiment on Raji [1], the “EBV-EA activation (% of positive control)” value turned out to be 36.6%. For the same compound, the “EBV antigen activation, %” value stood at 0% with Raji [4], 100% in the experiment on Raji [2] and 77.3% in the experiment on Raji [3]. The Viability in the experiment on Raji [5] came to 70%.
On to `OCC(CO)O[C@@H]1O[C@@H](CO)[C@H](O)[C@H](O)[C@@H]1O` (stereo in doubt; form 1), for which the “EBV-EA activation (% of positive control)” value in the experiment with Raji [1] worked out at 45.8%. In the experiment on Raji [5], the Viability amounted to 70%. Also, the “EBV antigen activation, %” value in the experiment on Raji [3] amounted to 81%.
Consider `OCC(O)CO[C@@H]1O[C@@H](CO)[C@H](O)[C@H](O)[C@@H]1O` (stereo in doubt; form 1), for which the “EBV-EA activation (% of positive control)” value in the experiment with Raji [1] is on record as 16.5%. Also, the “EBV antigen activation, %” value was found to be 79.1% in the experiment on Raji [2] and 58.2% in the experiment with Raji [3].
Take `OCC(O)CO[C@@H]1O[C@@H](CO)[C@H](O)[C@H](O)[C@@H]1O` (stereo in doubt; form 2): the “EBV-EA activation (% of positive control)” value in the experiment with Raji [1] was 25.8%. Besides, the “EBV antigen activation, %” value with Raji [4] was found to be 0%; in the experiment with Raji [2], 87.5%; in the experiment on Raji [3] it was 64.6%. For the same compound, the Viability in the experiment with Raji [5] came out at 70%.
For the compound `OCC(CO)O[C@@H]1O[C@@H](CO)[C@H](O)[C@H](O)[C@@H]1O` (stereo in doubt; form 2), the “EBV-EA activation (% of positive control)” value in the experiment on Raji [1] is reported as 17.5%. Moreover, the “EBV antigen activation, %” value is on record as 0% with Raji [4], 100% with Raji [2] and 88.1% in the experiment on Raji [3]. Also, the Viability with Raji [5] was determined as 80%.

The values above are taken from ChEMBL document CHEMBL1128917, “1-O-, 2-O- and 3-O--glycosyl-sn-glycerols: Structure - anti-tumor-promoting activity relationship” (1996).
